Changes are numbered by the printed parent chain. Several values for one entry are separate records, joined by “and”; a condition that tells them apart may be missing. Equal entries are not always repeated.
Legend:
[1] = target: T1, N370S glucocerebrosidase (GCase) (Homo sapiens, UniProt P04062, N409S); experiment: N370S spleen; format: biochemical; settings: for fold loss of activity vs 8a: compared with 8a; for IC50: N370S tissue homogenate, 4-methylumbelliferone β-D glucopyranoside substrate (blue substrate)
T1 sequence (P04062 40-536 N409S): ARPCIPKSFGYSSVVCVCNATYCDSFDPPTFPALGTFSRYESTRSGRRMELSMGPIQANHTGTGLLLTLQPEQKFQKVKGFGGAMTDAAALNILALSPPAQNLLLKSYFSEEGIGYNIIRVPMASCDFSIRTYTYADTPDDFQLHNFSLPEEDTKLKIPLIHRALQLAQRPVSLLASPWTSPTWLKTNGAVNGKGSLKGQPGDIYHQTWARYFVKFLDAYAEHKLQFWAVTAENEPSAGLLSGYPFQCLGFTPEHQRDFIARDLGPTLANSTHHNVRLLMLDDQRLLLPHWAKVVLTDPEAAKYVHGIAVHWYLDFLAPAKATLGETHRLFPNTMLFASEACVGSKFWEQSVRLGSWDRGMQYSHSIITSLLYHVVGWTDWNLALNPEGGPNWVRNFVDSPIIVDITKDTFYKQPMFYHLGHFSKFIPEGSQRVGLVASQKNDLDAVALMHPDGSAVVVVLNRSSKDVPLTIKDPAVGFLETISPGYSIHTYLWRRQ

human SST4 receptor = human SST4 receptor (Homo sapiens, UniProt P31391); experiment: human SST4 receptor binding affinity assay; settings: compared with 27
Sequence of human SST4 receptor (P31391 whole entry): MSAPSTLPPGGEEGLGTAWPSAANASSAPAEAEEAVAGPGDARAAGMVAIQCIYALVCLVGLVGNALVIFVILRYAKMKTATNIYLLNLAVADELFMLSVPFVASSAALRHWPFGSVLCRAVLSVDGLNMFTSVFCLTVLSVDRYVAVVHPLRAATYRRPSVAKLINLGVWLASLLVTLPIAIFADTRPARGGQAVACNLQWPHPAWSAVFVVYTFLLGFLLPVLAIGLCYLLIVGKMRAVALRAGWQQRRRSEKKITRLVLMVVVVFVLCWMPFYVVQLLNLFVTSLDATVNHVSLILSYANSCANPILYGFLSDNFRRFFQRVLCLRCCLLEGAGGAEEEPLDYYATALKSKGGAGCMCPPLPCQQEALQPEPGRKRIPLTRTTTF

[2] = tested on: fibroblasts from patients with genotype N370S/N370S; experiment: Translocation of N370S GCase to lysosomes, confocal microscopy; format: cell-based, human; settings: 1 μM compound, five days, vs vehicle
GCase [3] = target: T2, GCase (Homo sapiens, UniProt P04062); experiment: GCase inhibition with alternative substrates; format: biochemical
T2 sequence (P04062 40-536): T1 sequence (P04062 40-536 N409S) with S370N

GCase [4] = target: T2, GCase; experiment: Thermofunctional stabilization of GCase; format: biochemical; settings: enzyme incubated at 51 °C for 60 minutes
[5] = Pharmacokinetics after intraperitoneal administration to mice; format: in vivo, male C57BL/6 mice
[6] = Mouse liver microsome stability; format: in vitro ADME; settings: 60 minutes, in the presence of NADPH
GCase [7] = target: T2, GCase; experiment: Isolated enzyme GCase assay; format: biochemical

In the case of `CN(CCCN(Cc1ccc(Cl)cc1)c1ccc(Br)cn1)C(=S)NCCCc1cnc[nH]1` [compound 26], the “fold loss of activity vs 8a” value [1] was 2 fold.

For `CCCCNC(=S)NCCCN(Cc1ccc(Cl)c(Cl)c1)c1ccc(Br)cn1` [compound 25], the IC50 [1] was “inactive”.

In the case of `S=C(NCCCc1cnc[nH]1)NCCCN(Cc1ccc(Cl)cc1)c1ccc(Br)cc1` [compound 24], the “fold more potent than compound 27 (GCase)” value ([1]; compared with 27) was “about 10 fold”, the “fold less potent than 27 (SST4 binding)” value (human SST4 receptor) was “about 5 fold” and the “co-localization of N370S GCase with LAMP-1 (lysosomes)” value [2] was “Increased co-localization”.

With `CN(CCCc1cnc[nH]1)C(=S)NCCCN(Cc1ccc(Cl)cc1)c1ccc(Br)cn1` [compound 27] the “fold loss of activity vs 8a” value [1] was 10 fold.

For `CC(=O)NCCCNC(=S)NCCCN(Cc1ccc(Cl)cc1)c1ccc(Br)cn1` [13b], the IC50 [1] was “inactive”.

With `S=C(NCCCc1c[nH]cn1)NCCCN(Cc1ccc(Cl)c(Cl)c1)c1ccc(Br)cn1` [8i] the “inhibition of hydrolysis of resorufin-β-glucopyranoside (red substrate)” value (GCase [3]) was “effectively inhibited”, the “retention of GCase function after heating” value (GCase [4]) was “retain considerable function” and the “co-localization of N370S GCase with LAMP-1 (lysosomes)” value [2] was “Increased co-localization”. For the same molecule, the “Plasma concentration, Mean” value ([5]; 30 mg/kg IP, 0 hr) was “BQL”, the “Plasma concentration, individual” value ([5]; 30 mg/kg IP, 0 hr) was “BQL” and the “Plasma concentration, individual” value ([5]; 30 mg/kg IP, 0.083 hr, listed as ML156 (8i)) was 1820 ng/mL and 1410 ng/mL. The “Plasma concentration, individual” value ([5]; 30 mg/kg IP, 0.25 hr, listed as ML156 (8i)) was 3010 ng/mL and 1640 ng/mL, the “Plasma concentration, individual” value ([5]; 30 mg/kg IP, 0.5 hr, listed as ML156 (8i)) was 2270 ng/mL and 3270 ng/mL and the “Plasma concentration, individual” value ([5]; 30 mg/kg IP, 1 hr, listed as ML156 (8i)) was 3770 ng/mL and 3150 ng/mL. The “Plasma concentration, individual” value ([5]; 30 mg/kg IP, 2 hr, listed as ML156 (8i)) was 3840 ng/mL, the “Plasma concentration, individual” value ([5]; 30 mg/kg IP, 4 hr, listed as ML156 (8i)) was 2030 ng/mL and 2570 ng/mL and the “Plasma concentration, individual” value ([5]; 30 mg/kg IP, 8 hr, listed as ML156 (8i)) was 1190 ng/mL and 357 ng/mL and 714 ng/mL. For the same molecule, the “Plasma concentration, individual” value ([5]; 30 mg/kg IP, 12 hr, listed as ML156 (8i)) was 127 ng/mL and 80.7 ng/mL, the “Plasma concentration, individual” value ([5]; 30 mg/kg IP, 24 hr, listed as ML156 (8i)) was 12.6 ng/mL and 9.98 ng/mL and the brain exposure ([5]; brain, additional pharmacokinetic studies) was “reasonable levels of the compound also reached the brain”. For the same molecule, the parent molecule remaining [6] was 58% and the “inhibitory activity in isolated enzyme assays” value (GCase [7]) was “displayed inhibitory activity”.

With `OC[C@H]1CNC[C@@H](O)[C@@H]1O` [Isofagomine, reference compound] the “retention of GCase function after heating” value (GCase [4]) was “retain considerable function”.

Reference: PMC3351140 (MedChemComm, 2011)
